Measured values reported in PMC11592631, “Novel PP2A-Activating Compounds in Neuroblastoma” (Cancers, 2024).

Key:
[1] = tested on: SK-N-AS cells; assay: Monolayer wound healing (scratch) assay; format: cell-based, human; details: 4 μM
Description: (§1) Migration was investigated using a monolayer wound healing (scratch) assay. Established NB cells (5 × 10^4) were plated in 12-well plates. […] Photographs of the plates were obtained at 0, 12, 24, and 36 h. The ImageJ MRI Wound Healing Tool (https://imagej.net, accessed on 26 November 2021) quantified the open wound area as previously described. In PDX cells, migration was assessed using modified Boyden chamber assays. Micropore inserts with […] (Corning) were utilized in 24-well plates. The insert bottoms were coated with human laminin (10 µg/mL, 150 μL, EMD Millipore). COA6 PDX cells were treated for 24 h with ATUX-3364 or ATUX-8385 (6 μM), plated (4 × 10^4 cells), allowed to migrate through the membrane for 72 h, and the insert membranes were fixed using 4% paraformaldehyde and stained with 1% crystal violet for 15 min. Inserts were photographed, and migration was quantified with ImageJ (https://imagej.net, accessed on 26 November 2021). Scratch assays were reported as the fold change area remaining open at 36 h, and modified Boyden chamber assays were reported as the mean number of migrated cells ± SEM. Experiments were completed with at least three biological replicates.

[2] = tested on: WAC2 cells; assay: Monolayer wound healing (scratch) assay; format: cell-based, human; details: WAC2, 12 μM; vs untreated cells, p ≤ 0.001
Description: as §1

[3] = tested on: SK-N-BE(2) cells; assay: Monolayer wound healing (scratch) assay; format: cell-based, human; details: 4 μM, vs untreated cells, p ≤ 0.001
Description: as §1

[4] = tested on: SH-EP cells; assay: Monolayer wound healing (scratch) assay; format: cell-based, human; details: 12 μM, vs untreated cells, p ≤ 0.001
Description: as §1

[5] = tested on: SET; assay: Immunoblotting for the endogenous PP2A inhibitor SET; format: cell-based, human; details: immunoblot
Description: (§2) Post-treatment, cell lysis was completed in radioimmunoprecipitation (RIPA) buffer. Phosphatase inhibitors (P5726, Sigma), protease inhibitors (P8340, Sigma), and phenylmethanesulfonylfluoride (PMSF, P7626, Sigma) were added to make a complete RIPA buffer. Lysis was performed for 60 min at 4 °C followed by centrifugation at 17,000 rpm for 30 min (4 °C). The protein concentration was determined using the Pierce BCA Protein Assay (Thermo Fisher Scientific), and protein separation was completed on sodium dodecyl sulfate polyacrylamide (SDS-PAGE) gel-based electrophoresis. Targeted protein size was determined using molecular weight markers (Precision Plus Protein Kaleidoscope, Bio-Rad, Hercules, CA, USA). […] Immunoblots were developed with Luminata Classico or Crescendo Western horseradish peroxidase substrate (EMD Millipore, Burlington, MA, USA) on X-ray film. Anti-beta-actin, anti-vinculin, or anti-GAPDH served as internal loading controls.

[6] = Pharmacokinetic studies of ATUX-8385 in mice (IV and PO), plasma by LC-MS/MS; format: in vivo
Description: Pharmacokinetic (PK) studies of ATUX-8385 were conducted by Eurofins. Briefly, ATUX-8385 was administered at 1 mg/kg intravenously (IV) or 30 mg/kg oral (PO) to male mice, as is the experimental choice of the Contract Research Organization. At euthanasia, samples were collected and stored at −70 °C until processing. The plasma samples were collected at 0.05, 0.167, 0.5, 1, 2, 4, 8, and 24 h(s) after IV treatment, and at 0.167, 0.5, 1, 2, 4, 6, 8, and 24 h(s) after PO treatment. The plasma samples were processed using acetonitrile precipitation and analyzed by liquid chromatography–tandem mass spectrometry (LC-MS/MS).

[7] = tested on: COA6 PDX cells; assay: Modified Boyden chamber migration assay; format: cell-based, human; details: COA6, 6 μM, treated 24 h, 72 h migration; p ≤ 0.001
Description: as §1

[8] = tested on: SK-N-BE(2) tumors; assay: In vivo tumor growth, flank xenograft; set-up: species or system athymic nude mice; details: 50 mg/kg oral twice daily, 21 days
Description: (§3) SK-N-AS or SK-N-BE(2) (1.5 × 10^6) cells in 25% Matrigel (BD Biosciences) were injected into the right flank of 6-week-old female athymic nude mice (Fredricks) (n = 7 for SK-N-AS vehicle treated, n = 6 for SK-N-AS experimental groups, n = 5 for SK-N-BE(2) vehicle treated, n = 6 for SK-N-BE(2) ATUX-3364, and n = 7 ATUX-8385 treatment groups). Tumors were measured thrice per week with calipers, and tumor volumes were calculated by the formula (width^2 × length)/2, where the width was the smaller measurement. When tumors reached a volume of 60–100 mm^3, animals were randomized to three groups to receive 100 µL twice daily by oral gavage of vehicle [N,N-dimethylacetamide (DMA, 271012, Sigma Aldrich) and Kolliphor HS 15 (Solutol, 42996, Sigma Aldrich)], ATUX-3364 (50 mg/kg in DMA and Solutol), or ATUX-8385 (50 mg/kg in DMA and Solutol); dosing was based on previously published data using in vivo cancer models. Animals were weighed daily and were humanely euthanized in their home cages with CO2 and cervical dislocation 14 (SK-N-AS) or 21 (SK-N-BE(2)) days after treatment initiation, when the tumor volume reached 2000 mm^3, or when animals met IACUC parameters. Because COA6 cells grow tumors unpredictably and erratically in mice, these PDX cells were not utilized for in vivo studies, but all COA6 tumors were propagated in mice.

[9] = tested on: SK-N-AS tumors; assay: In vivo tumor growth, flank xenograft; set-up: species or system athymic nude mice; details: 50 mg/kg oral twice daily, 14 days
Description: as §3

[10] = tested on: MYCN; assay: Immunoblotting for phosphorylated MYCN (S62) and total MYCN; format: cell-based, human; details: increasing concentrations, immunoblot
Description: as §2

[11] = In vitro microsome (oxidative) stability / in vitro metabolism; format: in vitro ADME
[12] = tested on: CIP2A; assay: Immunoblotting for the endogenous PP2A inhibitor CIP2A; format: cell-based, human; details: immunoblot
Description: as §2

[13] = biological target: T1, PP2A (Homo sapiens, UniProt P30153+P67775+Q15172); assay: PP2A Immunoprecipitation Phosphatase Assay on lysates of treated NB cells; format: cell-based; details: 24 h, control 100%, mean ± SEM
T1 construct: endogenous in cells; host or cells: SK-N-AS, SK-N-BE(2), SH-EP, WAC2 human neuroblastoma cells
Description: SK-N-AS, SK-N-BE(2), SH-EP, or WAC2 cells (1 × 10^6) were treated with ATUX-3364 or ATUX-8385 (SK-N-AS and SK-N-BE(2) 4 µM; SH-EP and WAC2 12 µM) for 24 h and lysed using HEPES ((4-(2-hydroxyethyl)-1-piperazineethanesulfonic acid, 10 mM) (AC215001000, Thermo Fisher Scientific), MgCl2 (1.5 mM) (MX0045-4, EM Science, Gibbstown, NJ, USA), KCl (10 mM) (02-003-741, Thermo Fisher Scientific), phenylmethylsulfonyl fluoride (0.5 mM) (PMSF, Sigma Aldrich), dithiothreitol (0.5 mM) (EC-601, National Diagnostics, Atlanta, GA, USA), and Igepal CA-630 (0.2%) (I7771, Sigma Aldrich) on ice for 20 min. Cell lysates were centrifuged at 17 000 rpm for 30 min at 4 °C. A PP2A Immunoprecipitation Phosphatase Assay Kit (17–313, EMD Millipore) was utilized per the manufacturer’s protocol to evaluate the activity of PP2A. Experiments were completed with at least three biological replicates, and data were reported as mean fold change ± standard error of the mean (SEM).

[14] = tested on: SK-N-AS cells; assay: Proliferation, CellTiter 96 assay; format: cell-based, human; details: increasing doses, 24 h
Description: (§4) Cell viability was determined by alamarBlue assay (Thermo Fisher Scientific) and proliferation was detected with CellTiter 96 Proliferation assay (Promega, Madison, WI, USA). NB cell lines (15,000 cells for viability or 5000 for proliferation) or COA6 PDX cells (30,000 for viability or 10,000 for proliferation) were seeded in 96-well cell culture plates followed by treatment with increasing doses of ATUX-3364 or ATUX-8385 for 24 h. Doses were as follows: established cell lines, 0–20 µM; PDX COA6 cells, 0–25 µM. Respective dyes (10 µL) were added, and absorbance measurement was completed with a microplate reader (Epoch Microplate Spectrophotometer, BioTek Instruments, Winooski, VT, USA). A wavelength of 570 nm was used for alamarBlue and 490 nm for CellTiter 96 with 600 nm serving as the reference for both. A minimum of three biological replicates for each experiment were completed, and data were reported as fold change ± SEM.

[15] = tested on: WAC2 cells; assay: Proliferation, CellTiter 96 assay; format: cell-based, human; details: WAC2, increasing doses, 24 h
Description: as §4

[16] = tested on: COA6 PDX cells; assay: Proliferation, CellTiter 96 assay; format: cell-based, human; details: increasing doses, 24 h
Description: as §4

[17] = tested on: SK-N-BE(2) cells; assay: Proliferation, CellTiter 96 assay; format: cell-based, human; details: increasing doses, 24 h
Description: as §4

[18] = tested on: SH-EP cells; assay: Proliferation, CellTiter 96 assay; format: cell-based, human; details: increasing doses, 24 h
Description: as §4

[19] = tested on: SK-N-AS cells; assay: Cell viability, alamarBlue assay; format: cell-based, human; details: SK-N-AS, 0, 5, 7.5, 20 μM, 24 h
Description: as §4

[20] = tested on: WAC2 cells; assay: Cell viability, alamarBlue assay; format: cell-based, human; details: WAC2, 0, 5, 7.5, 20 μM, 24 h
Description: as §4

[21] = tested on: COA6 PDX cells; assay: Cell viability, alamarBlue assay; format: cell-based, human; details: COA6 PDX cells, 0, 5, 10, 20 μM, 24 h
Description: as §4

[22] = tested on: SK-N-BE(2) cells; assay: Cell viability, alamarBlue assay; format: cell-based, human; details: SK-N-BE(2), 0, 5, 7.5, 20 μM, 24 h
Description: as §4

[23] = tested on: SH-EP cells; assay: Cell viability, alamarBlue assay; format: cell-based, human; details: SH-EP, 0, 5, 7.5, 20 μM, 24 h
Description: as §4

[24] = tested on: PARP; assay: Immunoblotting for cleaved and total PARP (apoptosis); format: cell-based, human; details: immunoblot
Description: as §2

[25] = set-up: method as in PMID 35454859; details: in vivo; cited from earlier work
[26] = set-up: method as in PMID 35454859; details: cited from earlier work

T1 sequence (P30153 2-589 limits assumed): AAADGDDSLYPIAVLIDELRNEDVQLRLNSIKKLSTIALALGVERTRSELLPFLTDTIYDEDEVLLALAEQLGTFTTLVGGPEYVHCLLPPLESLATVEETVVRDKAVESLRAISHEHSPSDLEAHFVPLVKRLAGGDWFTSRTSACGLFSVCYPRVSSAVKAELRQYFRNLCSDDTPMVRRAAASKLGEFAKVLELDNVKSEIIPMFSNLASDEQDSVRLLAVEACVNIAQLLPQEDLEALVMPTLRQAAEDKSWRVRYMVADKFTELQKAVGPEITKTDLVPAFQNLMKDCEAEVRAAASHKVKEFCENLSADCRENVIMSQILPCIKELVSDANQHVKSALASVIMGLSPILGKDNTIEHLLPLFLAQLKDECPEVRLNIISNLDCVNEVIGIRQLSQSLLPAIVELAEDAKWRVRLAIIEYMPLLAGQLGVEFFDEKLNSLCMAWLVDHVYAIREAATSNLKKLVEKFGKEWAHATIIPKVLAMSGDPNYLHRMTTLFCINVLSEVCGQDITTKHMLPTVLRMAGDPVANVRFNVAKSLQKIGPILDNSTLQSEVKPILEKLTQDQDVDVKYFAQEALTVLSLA
T1 sequence (P67775 whole entry): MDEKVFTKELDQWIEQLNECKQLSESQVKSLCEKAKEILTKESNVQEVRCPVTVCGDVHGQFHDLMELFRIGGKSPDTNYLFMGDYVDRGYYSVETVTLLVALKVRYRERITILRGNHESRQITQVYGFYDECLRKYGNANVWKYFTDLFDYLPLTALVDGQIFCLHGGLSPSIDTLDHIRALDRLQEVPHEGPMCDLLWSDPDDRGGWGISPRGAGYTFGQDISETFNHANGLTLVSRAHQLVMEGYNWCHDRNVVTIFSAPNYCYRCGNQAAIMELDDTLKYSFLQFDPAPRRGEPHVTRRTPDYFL
T1 sequence (Q15172 whole entry): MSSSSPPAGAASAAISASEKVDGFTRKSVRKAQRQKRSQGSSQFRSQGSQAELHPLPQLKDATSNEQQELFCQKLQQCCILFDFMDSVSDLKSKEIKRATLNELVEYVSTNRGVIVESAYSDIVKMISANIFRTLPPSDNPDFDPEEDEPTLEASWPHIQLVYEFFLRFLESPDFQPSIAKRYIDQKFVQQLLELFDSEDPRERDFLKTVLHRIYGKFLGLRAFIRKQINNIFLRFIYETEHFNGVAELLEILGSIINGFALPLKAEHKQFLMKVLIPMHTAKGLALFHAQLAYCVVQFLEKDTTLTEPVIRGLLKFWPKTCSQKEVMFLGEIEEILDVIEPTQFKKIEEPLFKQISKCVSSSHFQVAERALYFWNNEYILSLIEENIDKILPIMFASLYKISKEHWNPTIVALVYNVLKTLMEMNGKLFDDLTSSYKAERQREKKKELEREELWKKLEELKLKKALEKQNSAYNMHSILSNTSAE

## O=S(=O)(N[C@@H]1CNC[C@H](n2c3ccc(F)cc3c3cc(F)ccc32)[C@H]1O)c1ccc(OC(F)(F)F)cc1 [ATUX-8385]
[1]
  motility (wound healing, area remaining open at 36 h): affected in a statistically significant manner
[2]
  motility (wound healing, area remaining open at 36 h): significant decrease in motility
[3]
  motility (wound healing, area remaining open at 36 h): significant decrease in motility
[4]
  motility (wound healing, area remaining open at 36 h): significant decrease in motility
[5]; COA6 PDX cells
  SET expression: variably affected
[5]; SH-EP cells
  SET expression: did not alter SET expression
[5]; SK-N-AS cells
  SET expression: unchanged
[5]; SK-N-BE(2) cells
  SET expression: increased
[5]; WAC2 cells
  SET expression: decreased
[6]; 12.3 vs 32.5 mL/min/kg
  in vivo IV clearance stability relative to DBK-1154: more stable by a factor of nearly three times
[6]; for approximately 8 h after a bolus oral dose at 30 mg/kg
  Plasma levels: 1000 to 2000 nM
[7]
  cell migration (number of migrated cells): significantly decreased
[8]
  relative tumor growth: significant decrease
  tumor volumes: significant decrease
[9]
  relative tumor growth: no decrease
  tumor volumes: no decrease
[10]; SK-N-AS cells
  phosphorylated MYCN (S62): decreased
  total MYCN protein expression: decreased
[10]; SK-N-BE(2) cells
  phosphorylated MYCN (S62): decreased
  total MYCN protein expression: decreased
[11]; <115.5 vs 234 µL/min/mg
  microsome stability relative to DBK-1154: more stable by a factor of two
[11]; Test Concentration 1 x 10^-7 M
  Clearance (in vitro microsome (oxidative) stability): < 115.5 µL/min/mg
[12]; SH-EP cells
  CIP2A expression: decreased
[12]; SK-N-AS cells
  CIP2A expression: decreased
[12]; SK-N-BE(2) cells
  CIP2A expression: decreased
[12]; WAC2 cells
  CIP2A expression: decreased
[13]; SH-EP cells, 12 μM
  PP2A activation (percent of control): 126.6 ± 6.4%
[13]; SK-N-AS cells, 4 μM
  PP2A activation (percent of control): 134.1 ± 5.5%
[13]; SK-N-BE(2) cells, 4 μM
  PP2A activation (percent of control): 167.2 ± 13.7%
[13]; WAC2 cells, 12 μM
  PP2A activation (percent of control): 118.2 ± 9.2%
[14]
  proliferation: significant decrease
[15]
  proliferation: significant decrease
[16]
  proliferation: significant decrease
[17]
  proliferation: significant decrease
[18]
  proliferation: significant decrease
[19]
  viability: significantly decreased viability
[20]
  viability: significantly decreased viability
[21]
  viability: significantly decreased
[22]
  viability: significantly decreased viability
[23]
  viability: significantly decreased viability
[24]; SK-N-AS whole cell lysates
  cleaved PARP: increase
  total PARP: decrease
[24]; SK-N-BE(2) whole cell lysates
  cleaved PARP: increase
  total PARP: decrease

## O=S(=O)(NC1CCCC(N2c3ccccc3CCc3ccccc32)C1O)c1ccc(OC(F)(F)F)cc1 (stereo not shown) [DBK-1154]
[25]
  clearance IV: 32.5 mL/min/kg
[26]
  in vitro microsome (oxidative) stability (clearance): 234 µL/min/mg
